Results published in patent publication US11111251B2, “Positive allosteric modulators of the muscarinic acetylcholine receptor M1” (Vanderbilt University, priority 2016, dated 2021).
Where two headings read alike, the source gives them in different places.

Target: T1, human mAChR M1 (Homo sapiens, UniProt P11229)
T1 sequence (P11229 1-460): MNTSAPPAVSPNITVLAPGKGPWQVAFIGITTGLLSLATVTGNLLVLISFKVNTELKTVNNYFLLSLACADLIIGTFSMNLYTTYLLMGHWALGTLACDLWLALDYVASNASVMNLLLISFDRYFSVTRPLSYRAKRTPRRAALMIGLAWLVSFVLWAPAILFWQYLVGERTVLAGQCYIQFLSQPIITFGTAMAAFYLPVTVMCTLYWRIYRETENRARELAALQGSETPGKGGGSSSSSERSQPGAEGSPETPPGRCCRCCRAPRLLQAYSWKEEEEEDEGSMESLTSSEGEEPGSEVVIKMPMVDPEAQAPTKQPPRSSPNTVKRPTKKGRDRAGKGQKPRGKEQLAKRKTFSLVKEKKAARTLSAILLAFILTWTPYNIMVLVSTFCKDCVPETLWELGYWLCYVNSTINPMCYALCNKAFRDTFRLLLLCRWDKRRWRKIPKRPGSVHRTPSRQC
Experiment: mAChR M1 cell-based functional assay: calcium mobilization, positive allosteric modulator mode (increase in EC20 acetylcholine response)
Conditions: for Emax: read-out: Human M1 Emax (%)
In short: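 Calcium-flux assay in CHO-K1 cells stably expressing human M1, loaded with Fluo-4 AM (50 min, 37 °C) and read at 1 Hz. Compound (11-point, 1:3 series) was added at 4 s, EC20 acetylcholine at 144 s and EC80 at 230 s. PAM activity is the concentration-dependent rise in the EC20 response, fitted with a four-parameter logistic.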

[1] = Table 2, human M1, read-out: Human M1 EC50
[2] = Table 1, mAChR M1 cell-based functional assay, PAM mode, species not given, read-out: EC50

Cn1ccc2nc(C(=O)N[C@H]3CCCOC3)cc(Cc3ccc(-c4cscn4)cc3)c21 [Compound 462, 1-methyl-N-[(3S)-tetrahydropyran-3-yl]-7-[(4-thiazol-4-ylphenyl)methyl]pyrrolo[3,2-b]pyridine-5-carboxamide]
EC50 [1]: 2050 nM | Emax (Table 2, human M1): 67.9%

Cc1ccc(Oc2cc(C(=O)NCC(O)C(F)(F)F)nc3ccsc23)cn1 (stereo not drawn) [Compound 31, 7-[(6-methyl-3-pyridyl)oxy]-N-(3,3,3-trifluoro-2-hydroxy-propyl)thieno[3,2-b]pyridine-5-carboxamide]
EC50 [2]: > 10000 nM

Cn1cc(-c2cc(F)c(Cc3cc(C(=O)N[C@H]4COCC[C@@H]4O)nc4ccsc34)c(F)c2)cn1 [Compound 60, 7-[[2,6-difluoro-4-(1-methylpyrazol-4-yl)phenyl]methyl]-N-[(3S,4S)-4-hydroxytetrahydropyran-3-yl]thieno[3,2-b]pyridine-5-carboxamide]
EC50 [1]: 5600 nM | Emax (Table 2, human M1): 71.6%

Cc1ccc(Cc2cc(C(=O)N[C@H]3CCCC[C@@H]3O)nc3ccsc23)cn1 [Compound 1, N-((1S,2S)-2-Hydroxycyclohexyl)-7-((6-methylpyridin-3-yl)methyl)thieno[3,2-b]pyridine-5-carboxamide]
EC50: 87 nM

Cc1nc(-c2ccc(Cc3cc(C(=O)N[C@@H]4COCC[C@H]4O)nc4ccsc34)cc2)co1 [Compound 167, N-[(3R,4R)-4-hydroxytetrahydropyran-3-yl]-7-[[4-(2-methyloxazol-4-yl)phenyl]methyl]thieno[3,2-b]pyridine-5-carboxamide]
EC50 [1]: 25.3 nM | Emax (Table 2, human M1): 90.4%

O=C(c1cc(Cc2ccc(-n3cccn3)cc2)c2sccc2n1)N1CCN(CCO)CC1 [Compound 84, [4-(2-hydroxyethyl)piperazin-1-yl]-[7-[(4-pyrazol-1-ylphenyl)methyl]thieno[3,2-b]pyridin-5-yl]methanone]
EC50 [1]: > 10000 nM | Emax (Table 2, human M1): 24.4%

Cc1nn(C)c(C)c1-c1ccc(Cc2cc(C(=O)NC3CC4(COC4)C3)nc3ccsc23)cc1 [Compound 241, N-(2-oxaspiro[3.3]heptan-6-yl)-7-[[4-(1,3,5-trimethylpyrazol-4-yl)phenyl]methyl]thieno[3,2-b]pyridine-5-carboxamide]
EC50 [1]: > 10000 nM | Emax (Table 2, human M1): 18.8%

O=C(N[C@@H]1CC[C@H]1O)c1cc(Cc2c(F)cc(-c3cscn3)cc2F)c2sccc2n1 [Compound 274, 7-[(2,6-difluoro-4-thiazol-4-yl-phenyl)methyl]-N-[(1R,2R)-2-hydroxycyclobutyl]thieno[3,2-b]pyridine-5-carboxamide]
EC50 [1]: > 10000 nM | Emax (Table 2, human M1): 46.8%

Cn1cc(-c2ccc(Cc3cc(C(=O)N[C@H]4CCOC4)nc4ccsc34)cc2)nn1 [Compound 151, 7-[[4-(1-methyltriazol-4-yl)phenyl]methyl]-N-[(3S)-tetrahydrofuran-3-yl]thieno[3,2-b]pyridine-5-carboxamide]
EC50 [1]: 595 nM | Emax (Table 2, human M1): 88.4%

Cn1ccc(-c2ccc(Cc3cc(C(=O)NC4COC4)nc4ccsc34)cn2)n1 [Compound 415]
EC50 [1]: 8350 nM | Emax (Table 2, human M1): 63%

O=C(c1cc(Cc2ccc(-n3cccn3)cc2)c2sccc2n1)N1CCC[C@@H](O)C1 [Compound 81, [(3R)-3-hydroxy-1-piperidyl]-[7-[(4-pyrazol-1-ylphenyl)methyl]thieno[3,2-b]pyridin-5-yl]methanone]
EC50 [1]: > 10000 nM | Emax (Table 2, human M1): 33%

Cc1ccc(C(=O)c2cc(C(=O)N[C@@H]3CCCC[C@H]3O)nc3ccsc23)cn1 [Compound 145, N-[(1R,2R)-2-hydroxycyclohexyl]-7-(6-methylpyridine-3-carbonyl)thieno[3,2-b]pyridine-5-carboxamide]
EC50 [1]: > 10000 nM | Emax (Table 2, human M1): 41.6%

O=C(NC1CC2(COC2)C1)c1cc(Cc2ccc(-n3cccn3)cc2)c2sccc2n1 [Compound 275, N-(2-oxaspiro[3.3]heptan-6-yl)-7-[(4-pyrazol-1-ylphenyl)methyl]thieno[3,2-b]pyridine-5-carboxamide]
EC50 [1]: 43 nM | Emax (Table 2, human M1): 69.9%

Cc1nc(-c2ccc(Cc3cc(C(=O)NC4CCOCC4)nc4c(C)csc34)cc2)co1 [Compound 329, 3-methyl-7-[[4-(2-methyloxazol-4-yl)phenyl]methyl]-N-tetrahydropyran-4-yl-thieno[3,2-b]pyridine-5-carboxamide]
EC50 [1]: 458 nM | Emax (Table 2, human M1): 73.5%

Cn1cc(-c2ccc(Cc3cc(C(=O)N[C@H]4CCCC[C@@H]4O)nc4ccsc34)cn2)cn1 [Compound 224, N-[(1S,2S)-2-hydroxycyclohexyl]-7-[[6-(1-methylpyrazol-4-yl)-3-pyridyl]methyl]thieno[3,2-b]pyridine-5-carboxamide]
EC50 [1]: 13.4 nM | Emax (Table 2, human M1): 71.2%

Cn1cc(-c2ccc(Cc3cc(C(=O)N[C@@H]4COCC[C@H]4O)nc4ccsc34)cc2)nn1 [Compound 154, N-[(3R,4R)-4-hydroxytetrahydropyran-3-yl]-7-[[4-(1-methyltriazol-4-yl)phenyl]methyl]thieno[3,2-b]pyridine-5-carboxamide]
EC50 [1]: 6.2 nM | Emax (Table 2, human M1): 83.9%

Cc1nc(-c2ccc(Cc3cc(C(=O)NC4CCCCNC4=O)nc4ccsc34)cc2)cs1 (stereo not drawn) [Compound 199, 7-[[4-(2-methylthiazol-4-yl)phenyl]methyl]-N-(2-oxoazepan-3-yl)thieno[3,2-b]pyridine-5-carboxamide]
EC50 [1]: 1420 nM | Emax (Table 2, human M1): 88.1%

O=C(NCC1CCOC1)c1cc(Cc2ccc(-n3cccn3)cc2)c2sccc2n1 (stereo not drawn) [Compound 285, 7-[(4-pyrazol-1-ylphenyl)methyl]-N-(tetrahydrofuran-3-ylmethyl)thieno[3,2-b]pyridine-5-carboxamide]
EC50 [1]: 95.3 nM | Emax (Table 2, human M1): 64.3%

Cn1ccc2nc(C(=O)N[C@H]3CCOC3)cc(Cc3ccc(-c4cscn4)cc3)c21 [Compound 464, 1-methyl-N-[(3S)-tetrahydrofuran-3-yl]-7-[(4-thiazol-4-ylphenyl)methyl]pyrrolo[3,2-b]pyridine-5-carboxamide]
EC50 [1]: 1870 nM | Emax (Table 2, human M1): 71.2%

O=C(N[C@H]1CCCC[C@@H]1O)c1cc(Cc2ccc(-c3cscn3)cc2)c2sccc2n1 [Compound 217, N-[(1S,2S)-2-hydroxycyclohexyl]-7-[(4-thiazol-4-ylphenyl)methyl]thieno[3,2-b]pyridine-5-carboxamide]
EC50 [1]: 45.4 nM | Emax (Table 2, human M1): 74.8%

Cc1csc2c(Cc3ccc(-c4ccn(C)n4)cc3)cc(C(=O)NC3CC4(COC4)C3)nc12 [Compound 304, 3-methyl-7-[[4-(1-methylpyrazol-3-yl)phenyl]methyl]-N-(2-oxaspiro[3.3]heptan-6-yl)thieno[3,2-b]pyridine-5-carboxamide]
EC50 [1]: 568 nM | Emax (Table 2, human M1): 72.3%

Cn1cc(-c2ccc(Cc3cc(C(=O)NC4CN(C5COC5)C4)nc4ccsc34)cn2)cn1 [Compound 364]
EC50 [1]: 832 nM | Emax (Table 2, human M1): 83.8%

O=C(N[C@@H]1CC[C@H]1O)c1cc(Cc2ccc(-c3cscn3)cc2)c2sccc2n1 [Compound 200, N-[(1R,2R)-2-hydroxycyclobutyl]-7-[(4-thiazol-4-ylphenyl)methyl]thieno[3,2-b]pyridine-5-carboxamide]
EC50 [1]: 116 nM | Emax (Table 2, human M1): 89.4%

Cn1ccc(-c2ccc(Cc3cc(C(=O)NC4CCOC(C)(C)C4)nc4ccsc34)cc2)n1 (stereo not drawn) [Compound 325, N-(2,2-dimethyltetrahydropyran-4-yl)-7-[[4-(1-methylpyrazol-3-yl)phenyl]methyl]thieno[3,2-b]pyridine-5-carboxamide]
EC50 [1]: 907 nM | Emax (Table 2, human M1): 83.3%

Cc1ccc(Cc2cc(C(=O)NC3CC4(COC4)C3)nc3ccsc23)cn1 [Compound 261, 7-[(6-methyl-3-pyridyl)methyl]-N-(2-oxaspiro[3.3]heptan-6-yl)thieno[3,2-b]pyridine-5-carboxamide]
EC50 [1]: > 10000 nM | Emax (Table 2, human M1): 52.8%

Cn1ccc(-c2ccc(Cc3cc(C(=O)NC4CCOC(C)(C)C4)nc4ccn(C)c34)cn2)n1 (stereo not drawn) [Compound 504, N-(2,2-dimethyltetrahydropyran-4-yl)-1-methyl-7-[[6-(1-methylpyrazol-3-yl)-3-pyridyl]methyl]pyrrolo[3,2-b]pyridine-5-carboxamide;]
EC50 [1]: 1350 nM | Emax (Table 2, human M1): 79.5%

Cc1ccc(Cc2cc(C(=O)NC34CC5CC(CC(O)(C5)C3)C4)nc3c(C)csc23)cn1 [Compound 108, N-(3-hydroxy-1-adamantyl)-3-methyl-7-[(6-methyl-3-pyridyl)methyl]thieno[3,2-b]pyridine-5-carboxamide]
EC50 [1]: 5270 nM | Emax (Table 2, human M1): 48.4%

Cc1ccc(Oc2cc(C(=O)N[C@H]3CCOC[C@@H]3O)nc3ccsc23)cn1 [Compound 22, N-[(3R,4S)-3-hydroxytetrahydropyran-4-yl]-7-[(6-methyl-3-pyridyl)oxy]thieno[3,2-b]pyridine-5-carboxamide]
EC50 [2]: 1790 nM

Cn1cc(-c2ccc(Cc3cc(C(=O)NC4CC(F)C4)nc4ccsc34)cn2)cn1 (stereo not drawn) [Compound 346, N-(3-fluorocyclobutyl)-7-[[6-(1-methylpyrazol-4-yl)-3-pyridyl]methyl]thieno[3,2-b]pyridine-5-carboxamide]
EC50 [1]: 266 nM | Emax (Table 2, human M1): 89.4%

Cc1nc(-c2ccc(Cc3cc(C(=O)N[C@H]4CCCC[C@@H]4O)nc4ccsc34)cc2)cs1 [Compound 194, N-[(1S,2S)-2-hydroxycyclohexyl]-7-[[4-(2-methylthiazol-4-yl)phenyl]methyl]thieno[3,2-b]pyridine-5-carboxamide]
EC50 [1]: 59.6 nM | Emax (Table 2, human M1): 80.7%
